{"source": "patent US20230202980A1", "about": "“N-(2-Aminophenyl)-Prop-2-Enamide Derivatives, and Uses Thereof in the Treatment of Cancer” (National University of Singapore, priority 2019, published 2023)", "key": {"[1]": {"test_system": "SNU-398 (SALL4 high) cells", "test": "SALL4 high/low phenotypic screen (cell viability, CellTiter-Glo), SALL4 high cells", "format": "cell-based", "conditions": "for IC50: Homo sapiens, SNU-398, read-out: IC50 in high SALL4 SNU398 cells; for IC50 / IC50 in high SALL4 SNU398 cells: SALL4 high/low phenotypic screen, 72 hrs; for fold less potent than the most active compounds: SALL4 high SNU398 cells", "method": "(§1) SNU-387 empty vector, Tg:SALL4A, and Tg:SALL4B expressing isogenic cell lines were generated by transducing WT SNU-387 cells with empty vector, SALL4A or SALL4B FUW-Luc-mCh-puro lentiviral constructs^1. Cells were plated in 50 µl of RPMI culture media in 384-well white flat-bottom plates (Coming) and incubated at 37° C. in a humidified atmosphere of 5% CO2 overnight. Cell numbers per well were 1500 for SNU-398, and 750 for SNU-387 and SNU-387 isogenic lines. After overnight incubation, varying concentrations of compounds 1-80 were added to cells with multichannel electronic pipettes (Rainin). Cells were then incubated for 72 hrs at 37° C. in a humidified atmosphere of 5% CO2 before 10 µl of CellTiter-Glo reagent was added to the wells with the MultiFlo Microplate Dispenser (BioTek). Cells were incubated at room temperature for a mininuun of 10 minutes after which luminescence readings were recorded by an Infinite M1000 Microplate Reader (Tecan).\nThis testing was based on SALL4 high/low phenotypic screen as described herein. IC50 values noted for the compounds/groups above are based on ICso in high SALL4 SNU398 cells.\nALPHA assay measures binding between SALL4 and RBBp4, an inhibitor could block the binding and reflected in low reading of the ALPHA assay. FP assay also measures binding between SALL4 and RBBp4, an inhibitor results in […] reading. Cell-based assays are measuring cell viability with different concentration of compounds. Cell based 1299 refers to cell viability assay using H1299 cells; Cell-based SNU387 refers to cell viability assay using SNU387 cells; Cell based assay-SNU-398 refers to cell viability assay using SNU398 cells; Cell based MDA-MB231 refers to cell viability assay using MDA-MB231 cells."}, "SALL4 1-300 protein": {"target": "T1, SALL4 1-300 protein (Homo sapiens, UniProt Q9UJQ4)", "T1 sequence (Q9UJQ4 1-300)": "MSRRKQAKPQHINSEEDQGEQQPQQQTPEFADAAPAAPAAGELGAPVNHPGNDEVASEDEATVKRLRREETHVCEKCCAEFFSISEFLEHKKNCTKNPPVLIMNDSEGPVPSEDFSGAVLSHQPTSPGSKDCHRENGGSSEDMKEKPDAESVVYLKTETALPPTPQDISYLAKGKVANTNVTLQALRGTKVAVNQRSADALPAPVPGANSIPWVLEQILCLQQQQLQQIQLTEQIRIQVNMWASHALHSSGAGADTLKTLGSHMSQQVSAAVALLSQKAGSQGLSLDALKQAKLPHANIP", "test": "Thermal Shift Assay (fluorescence-based binding assay)", "conditions": "SALL4 1-300 with 100 mM compound", "description": "In the upper panel of FIG. 7, a fluorescence-based binding assay named Thermal Shift Assay was used to assess the binding of compound 6 to SALL4 1-300 protein based on changes in unfolding transition. […] In the lower panel of FIG. 7, compound 6 binding to SALL4 was accessed by 1H NMR Experiments and Saturation Transfer Difference (STD) using ^15N SALL4 1-300 and Compound 6. The samples were screened using Bruker BioSpin AVANCE II 600 MHz spectrometer equipped with a CPPTCI{ 19F} cryoprobe and SampleJet auto-sampler. Compound 6 weak binding event to SALL4 1-300 was identified based on the increase in transverse relaxation rate (R2) observed in the presence of SALL4 1-300 protein."}, "[2]": {"test_system": "SNU-387 (SALL4 low) cells", "test": "SALL4 high/low phenotypic screen (cell viability, CellTiter-Glo), SALL4 low cells", "format": "cell-based", "conditions": "Example 1, see FIG. 2", "method": "as §1\nALPHA assay measures binding between SALL4 and RBBp4, an inhibitor could block the binding and reflected in low reading of the ALPHA assay. FP assay also measures binding between SALL4 and RBBp4, an inhibitor results in […] reading. Cell-based assays are measuring cell viability with different concentration of compounds. […]"}, "[3]": {"test": "Pharmacokinetic study, whole blood concentration by LC-MS/MS", "format": "in vivo, Swiss albino mice", "method": "Compound 6 was dissolved in water containing 3% DMSO and 10% hydroxyl propyl-b-cyclodextrin (EncapsinTM) for the i.v. dose, and in water containing 5% DMSO and 9.5% Encapsin for the oral dose. Blood samples were collected at 0.083, 0.25, 0.5, 1, 2, 4, 6, 8 and 24 hrs. The whole blood concentration was measured by LC-MS/MS. From the oral route, 90% of compound 6 was cleared at 2 hrs. For the intravenous route, 90% of compound 6 was cleared at 4 hrs."}, "SALL4 RNA": {"test_system": "SALL4 RNA", "test": "SALL4 RNA expression down regulation (Q-PCR) in H661 cells", "format": "cell-based", "conditions": "48 hrs", "method": "Cells were treated with compound 6 at 1 µM and 2.5 µM. Amounts for other cmpds are shown. Cells were harvested at 48 hrs and the cell lysates were subjected to western blot analysis and Q-PCR analysis for SALL4 protein and RNA level respectively. […] As shown in the lower panel of FIG. 6, using Q-PCR, it was shown that SALL4 RNA level was reduced by Compound 6 in H661 cells."}, "[4]": {"test": "Metabolic stability using liver microsomes", "format": "in vitro ADME", "conditions": "1 µM, 3.33 mg/ml liver microsomes, 2.5 mM NADPH", "description": "(§2) Pan-HDAC binding assay measures HDAC inhibitory activity of a compound. Tubulin Polymerisation inhibition assays measure inhibition activity of a compound towards tubulin polymerization. SALL4 protein expression down regulation assay changed to western blot analysis, SALL4 RNA expression down regulation assay changed to real-time PCR assay. Permeability assay measures the (PAMPA) measures permeability of a compound across an artificial membrane. The microsomal stability assay measures rate of disappearance of a test compound over time in liver microsomes. In vivo PK assay measures biodistribution of the test compound in mice.\n1 µM of compound 6 was incubated with 3.33 mg/ml liver microsomes and 2.5 mM NADPH for 0, 5, 10, 30 and 60 minutes. The mixture were subjected to LC-MS/MS to measure remaining compound after the incubation."}, "PAMPA permeability assay": {"test": "PAMPA permeability assay", "format": "in vitro ADME", "conditions": "50 µM, pION buffer, 4 hours", "description": "as §2\n50 µM of Compound 6 prepared in pION buffer was added to bottom of UV plate. GIT-0 solution was added and the solution was incubated for 4 hours. The plate spectrum was read using spectrophotometer in scanning mode from 200 nm to 500 nm using PAMPA pION software."}, "SALL4 high tumor": {"test_system": "SALL4 high tumor", "test": "In vivo xenotransplant testing in mice", "conditions": "treated mice, P<0.05"}}}
{"smiles": "COc1ccc(N)c(NC(=O)/C=C/c2cccnc2Nc2cc(OC)c(OC)c(OC)c2)c1", "values": [{"measurement": "IC50", "setting": "[1]", "result": "150 to 1000", "unit": "nM"}]}
{"smiles": "COc1cc(Nc2ncccc2/C=C/C(=O)Nc2cc(C)ccc2N)cc(OC)c1OC", "values": [{"measurement": "IC50", "setting": "[1]", "result": "150 to 1000", "unit": "nM"}]}
{"smiles": "COc1cc(Nc2ncccc2/C=C/C(=O)Nc2cc(Cl)c(Cl)cc2N)cc(OC)c1OC", "values": [{"measurement": "IC50", "setting": "[1]", "result": "150 to 1000", "unit": "nM"}]}
{"smiles": "COc1ccc(Nc2ncccc2/C=C/C(=O)Nc2cc(C)ccc2N)cc1", "values": [{"measurement": "IC50", "setting": "[1]", "result": "~2000", "unit": "nM"}, {"measurement": "fold less potent than the most active compounds", "setting": "[1]", "result": "about 10 fold"}]}
{"smiles": "COc1ccc(N)c(NC(=O)/C=C/c2cccnc2Nc2ccc(C(F)(F)F)cc2)c1", "values": [{"measurement": "IC50", "setting": "[1]", "result": "~25000", "unit": "nM"}, {"measurement": "fold less potent than the most active compounds", "setting": "[1]", "result": "about 100 fold"}]}
{"smiles": "Nc1ccc(F)cc1NC(=O)c1cccnc1Nc1ccc(F)cc1", "values": [{"measurement": "IC50 in high SALL4 SNU398 cells", "setting": "[1]", "result": "inactive"}]}
{"smiles": "Nc1ccc(Cl)cc1NC(=O)c1cccnc1Nc1ccc(F)cc1", "values": [{"measurement": "IC50 in high SALL4 SNU398 cells", "setting": "[1]", "result": "inactive"}]}
{"smiles": "COc1cc(Nc2ncccc2/C=C/C(=O)Nc2ccc(Cl)cc2N)cc(OC)c1OC", "note": "[Cmpd 6]", "values": [{"measurement": "melting shift", "setting": "SALL4 1-300 protein", "result": 4.7, "unit": "°C"}, {"measurement": "low SALL4 cell inhibition, concentration", "setting": "[2]", "result": "high micromolar"}, {"measurement": "compound cleared from whole blood", "setting": "[3]; intravenous 5 mg/kg, at 4 hrs", "result": 90, "unit": "%"}, {"measurement": "compound cleared from whole blood", "setting": "[3]; oral 15 mg/kg, at 2 hrs", "result": 90, "unit": "%"}, {"measurement": "SALL4 RNA level (Q-PCR)", "setting": "SALL4 RNA", "result": "reduced"}, {"measurement": "status in liver microsome assay (printed: permeability status)", "setting": "[4]", "result": "medium"}, {"measurement": "metabolic stability in liver microsomes, %QH", "setting": "[4]; 0-60 minutes", "result": 45.88, "unit": "%QH"}, {"measurement": "permeability in PAMPA assay", "setting": "PAMPA permeability assay", "result": "high"}, {"measurement": "activity in high SALL4 cells", "setting": "[1]; Example 1, see FIG. 2", "result": "sub-micromolar"}, {"measurement": "selectivity between SALL4 low and SALL4 high cells (FIG. 2)", "setting": "[1]; SALL4 high vs SALL4 low cells", "result": "excellent"}, {"measurement": "EC50 / potency (FIG. 2)", "setting": "[1]; cell-based screening, SALL4 high cells", "result": "excellent"}, {"measurement": "xenograft size", "setting": "SALL4 high tumor", "result": "significant (P<0.05) smaller"}, {"measurement": "xenograft weight", "setting": "SALL4 high tumor", "result": "significant (P<0.05) smaller"}]}
{"smiles": "COc1cc(Nc2ncccc2/C=C/C(=O)Nc2ccc(Cl)cc2N)cc(OC)c1OC", "note": "[drawing 157]", "values": [{"measurement": "IC50", "setting": "[1]", "result": "150 to 1000", "unit": "nM"}]}
